Patent US5385842A, “Anthraquinones as inhibitors of sulfide production from sulfate-reducing bacteria” (E. I. Du Pont de Nemours and Company, priority 1993, dated 1995)

Legend:
Format in all cases: cell-based
[1] = test system: D. desulfuricans #ATCC27774; experiment: Rate of hydrogen utilization in the presence of different electron acceptors
Source text: The following experiments show the effect of the 1,8-dihydroxy-anthraquinone on the rate of hydrogen utilization by bacteria in the presence of different electron acceptors.

[2] = test system: Escherichia coli strain MC106; experiment: Aerobic and anaerobic growth of Escherichia coli; details: 5 ppm
Experimental: Another non-sulfate reducing organism, Escherichia coli strain MC106 was grown under aerobic conditions on BTZ-3 with 30 mM sodium succinate as sole carbon and electron source with oxygen as electron acceptor or under anaerobic conditions with hydrogen (80% as electron donor) and carbon dioxide (20%) as gas phase and sodium fumarate (30 mM) as electron acceptor. Both media contained 0.2% yeast extract.
Aerobic growth with succinate refers to growth on succinate as a carbon and electron source and oxygen as an electron acceptor. Anaerobic growth under hydrogen/carbon dioxide refers to growth with hydrogen as an electron donor and fumarate as an electron acceptor.

[3] = test system: D. desulfuricans G100A; experiment: Growth of D. desulfuricans G100A after addition of inhibitor at 12 h
Experimental: Four 10 ml culture tubes of BTZ-3 medium as defined in Example 1 supplemented with sodium lactate (40 mM) and sodium sulfate (30 mM) and 0.5 ml of reducing agent were inoculated with 100 ul of a fully grown suspension of D. desulfuricans G100A. The culture was allowed to grow and the optical density at 660 nm was monitored until the cells entered into exponential growth (approx. 12-15 h, O.D. 660=0.1-0.2). At this time 100 ul of a 300 ppm solution of 1,8 dihydroxyanthraquinone, 1-chloranthraquinone or 3-chloro-2-anthraquinone carboxylic acid, respectively, was added to one of the tubes. The ethanol:water (80:20) solvent (100 μl ) was added to the fourth tube to serve as an uninhibited control.
#3 ppm inhibitor added at 12 hours

[4] = test system: D. salexigens; experiment: Growth of different sulfate-reducers with 1,8-dihydroxyanthraquinone (Example 8); details: 3 ppm, 40 hours; control >1.5
Experimental: (§1) Growth was monitored as optical density at 660 nm for 40 hours.

[5] = test system: Thiobacillus denitrificans; experiment: Growth of Thiobacillus denitrificans
Experimental: Thiobacillus denitrificans was grown on BTZ-3 medium as defined in Example 1 (supplemented with reducing agent) and with 30 mM sodium nitrate plus 30 mM sodium thiosulfate. Cultures were anaerobic under a nitrogen atmosphere. Thus growth conditions mimicked those for the sulfate-reducingbacteria as closely as possible. […]

[6] = test system: D. desulfuricans G100A; experiment: Effect of dithionite-reduced anthraquinones on growth of D. desulfuricans G100A
Experimental: Three anthraquinones, 1,8-dihydroxy-, 1-chloro-, and 3-chloro-2-carboxy- were prepared as 1 ml of 1000 ppm solutions in acetone for the first two compounds or water for the third. These solutions were then treated with 1 mg of the strong reducing agent, sodium dithionite. 50 ul of each solution (for a final culture concentration of 5 ppm) was used immediately to treat growing cultures of D. desulfuricans G100A in BTZ-3 medium as defined in Example 1. The compounds were added to the 10 ml cultures at 15 h of growth.

[7] = test system: D. desulfuricans Norway; experiment: Growth of different sulfate-reducers with 1,8-dihydroxyanthraquinone (Example 7); details: 3 ppm, 40 hours; control .30
Experimental: as §1

[8] = test system: D. desulfuricans G100A; experiment: Growth of different sulfate-reducers with 1,8-dihydroxyanthraquinone (Example 6); details: 3 ppm, 40 hours; control >1.5
Experimental: as §1

[9] = test system: D. multispirans; experiment: Growth of different sulfate-reducers with 1,8-dihydroxyanthraquinone (Example 5); details: 3 ppm, 40 hours; control >1.5
Experimental: as §1

Structure (SMILES): O=C1c2cccc(O)c2C(=O)c2c(O)cccc21 [1,8-Dihydroxyanthraquinone]
- Hydrogen ([1]; Fumarate as electron acceptor, 3 ppm, 0 min, control 0): 0 µL
- Hydrogen ([1]; Fumarate as electron acceptor, 3 ppm, 10 min, control 9): 8 µL
- Hydrogen ([1]; Fumarate as electron acceptor, 3 ppm, 25 min, control 23): 25 µL
- Hydrogen ([1]; Fumarate as electron acceptor, 3 ppm, 40 min, control 47): 48 µL
- Hydrogen ([1]; Fumarate as electron acceptor, 3 ppm, 55 min, control 70): 74 µL
- Hydrogen ([1]; Fumarate as electron acceptor, 3 ppm, 70 min, control 95): 101 µL
- Hydrogen ([1]; Sulfate as electron acceptor, 3 ppm, 0 min, control 0): 0 µL
- Hydrogen ([1]; Sulfate as electron acceptor, 3 ppm, 10 min, control 15): 3 µL
- Hydrogen ([1]; Sulfate as electron acceptor, 3 ppm, 25 min, control 44): 14 µL
- Hydrogen ([1]; Sulfate as electron acceptor, 3 ppm, 40 min, control 76): 21 µL
- Hydrogen ([1]; Sulfate as electron acceptor, 3 ppm, 55 min, control 107): 28 µL
- Hydrogen ([1]; Sulfate as electron acceptor, 3 ppm, 70 min, control 152): 38 µL
- Hydrogen ([1]; Sulfate as electron acceptor, 3 ppm, 85 min, control 208): 45 µL
- Hydrogen ([1]; Sulfate as electron acceptor, 3 ppm, 100 min, control 266): 56 µL
- Hydrogen ([1]; Sulfate as electron acceptor, 3 ppm, 115 min, control 336): 74 µL
- Hydrogen ([1]; Sulfite as electron acceptor, 3 ppm, 0 min, control 0): 0 µL
- Hydrogen ([1]; Sulfite as electron acceptor, 3 ppm, 6 min, control 7): 7 µL
- Hydrogen ([1]; Sulfite as electron acceptor, 3 ppm, 16 min, control 26): 25 µL
- Hydrogen ([1]; Sulfite as electron acceptor, 3 ppm, 26 min, control 45): 43 µL
- Hydrogen ([1]; Sulfite as electron acceptor, 3 ppm, 59 min, control 139): 141 µL
- Hydrogen ([1]; Sulfite as electron acceptor, 3 ppm, 71 min, control 179): 183 µL
- Hydrogen ([1]; Thiosulfate as electron acceptor, +6 ppm, 0 min, control 0): 0 µL
- Hydrogen ([1]; Thiosulfate as electron acceptor, +6 ppm, 11 min, control 38): 33 µL
- Hydrogen ([1]; Thiosulfate as electron acceptor, +6 ppm, 21 min, control 90): 73 µL
- Hydrogen ([1]; Thiosulfate as electron acceptor, +6 ppm, 31 min, control 144): 118 µL
- Hydrogen ([1]; Thiosulfate as electron acceptor, +6 ppm, 41 min, control 204): 176 µL
- inhibition of aerobic or anaerobic growth (in words) [2]: virtually no inhibition
- Optical Density @ 660 nm ([2]; aerobic growth with succinate, 0 h, control 0.01): 0.01
- Optical Density @ 660 nm ([2]; aerobic growth with succinate, 5.5 h, control 0.17): 0.24
- Optical Density @ 660 nm ([2]; aerobic growth with succinate, 6.5 h, control 0.37): 0.39
- Optical Density @ 660 nm ([2]; aerobic growth with succinate, 7.5 h, control 0.38): 0.40
- Optical Density @ 660 nm ([2]; aerobic growth with succinate, 24 h, control 1.50): 1.50
- Optical Density @ 660 nm ([2]; anaerobic growth under hydrogen/carbon dioxide, 0 h, control 0.0): 0.01
- Optical Density @ 660 nm ([2]; anaerobic growth under hydrogen/carbon dioxide, 3.5 h, control 0.30): 0.29
- Optical Density @ 660 nm ([2]; anaerobic growth under hydrogen/carbon dioxide, 4.5 h, control 0.45): 0.62
- Optical Density @ 660 nm ([2]; anaerobic growth under hydrogen/carbon dioxide, 5.5 h, control 0.61): 0.79
- Optical Density @ 660 nm ([2]; anaerobic growth under hydrogen/carbon dioxide, 6.0 h, control 0.75): 0.87
- optical density reading at 660 nm ([3]; 0 h of growth, before addition of 3 ppm inhibitor at 12 h): .01
- optical density reading at 660 nm ([3]; 10 h of growth, before addition of 3 ppm inhibitor at 12 h): .12
- optical density reading at 660 nm ([3]; 12 h of growth, 3 ppm inhibitor added at 12 h): .20
- optical density reading at 660 nm ([3]; 14 h of growth, 3 ppm inhibitor added at 12 h): .19
- optical density reading at 660 nm ([3]; 18 h of growth, 3 ppm inhibitor added at 12 h): .16
- optical density reading at 660 nm ([3]; 20 h of growth, 3 ppm inhibitor added at 12 h): .16
- optical density reading at 660 nm ([3]; 24 h of growth, 3 ppm inhibitor added at 12 h): .16
- optical density reading at 660 nm ([3]; 29 h of growth, 3 ppm inhibitor added at 12 h): .18
- optical density reading at 660 nm ([3]; 34 h of growth, 3 ppm inhibitor added at 12 h): .18
- optical density reading at 660 nm ([3]; 62 h of growth, 3 ppm inhibitor added at 12 h): .30
- optical density reading at 660 nm ([3]; 92 h of growth, 3 ppm inhibitor added at 12 h): .28
- Optical Density @ 660 nm, treated [4]: .06
- Optical Density @ 660 nm ([5]; 0 h of growth, before addition of 3 ppm at 19 h, control .02): .0
- effect on growth (in words) ([5]; 3 ppm): no effect on the growth of T. denitrificans
- Optical Density @ 660 nm ([5]; 12 h of growth, before addition of 3 ppm at 19 h, control .06): .06
- Optical Density @ 660 nm ([5]; 15 h of growth, before addition of 3 ppm at 19 h, control .08): .08
- Optical Density @ 660 nm ([5]; 19 h of growth, time of addition of 3 ppm, control .09): .09
- Optical Density @ 660 nm ([5]; 34 h of growth, 3 ppm added at 19 h, control .22): .22
- Optical Density @ 660 nm ([5]; 36 h of growth, 3 ppm added at 19 h, control .29): .25
- Optical Density @ 660 nm ([5]; 38 h of growth, 3 ppm added at 19 h, control .32): .27
- Optical Density @ 660 nm ([5]; 43 h of growth, 3 ppm added at 19 h, control .40): .32
- Optical Density @ 660 nm ([5]; 55 h of growth, 3 ppm added at 19 h, control 1.5): 1.5
- Optical Density @ 660 nm ([6]; 0 h, before addition of 5 ppm dithionite-reduced compound at 15 h, control 0.02): 0.02
- Optical Density @ 660 nm ([6]; 2 h, before addition of 5 ppm dithionite-reduced compound at 15 h, control 0.02): 0.02
- Optical Density @ 660 nm ([6]; 12 h, before addition of 5 ppm dithionite-reduced compound at 15 h, control 0.08): 0.10
- Optical Density @ 660 nm ([6]; 15 h, time of addition of 5 ppm dithionite-reduced compound, control 0.18): 0.2
- Optical Density @ 660 nm ([6]; 17 h, 5 ppm dithionite-reduced compound added at 15 h, control 0.26): 0.24
- Optical Density @ 660 nm ([6]; 20 h, 5 ppm dithionite-reduced compound added at 15 h, control 0.37): 0.23
- Optical Density @ 660 nm ([6]; 25 h, 5 ppm dithionite-reduced compound added at 15 h, control 0.50): 0.22
- Optical Density @ 660 nm ([6]; 30 h, 5 ppm dithionite-reduced compound added at 15 h, control 0.98): 0.23
- Optical Density @ 660 nm ([6]; 45 h, 5 ppm dithionite-reduced compound added at 15 h, control 1.50): 0.25
- Optical Density @ 660 nm, treated [7]: .09
- Optical Density @ 660 nm, treated [8]: .20
- Optical Density @ 660 nm, treated [9]: .28
